This is an account of results in article PMC12526156, “Optimization of the Macrocyclic Tetrapeptide [D-Trp]CJ-15,208 to Prevent Stress-Induced Relapse of Cocaine-Seeking Behavior” (Molecules, 2025).

Values after ≈ are worked out from the molar mass of the structure shown. Read-outs that look alike come from different tables or passages of the source. Where a SMILES comes first, the peptide text is derived from it. [ ]: non-standard residue; d: D form. The star is where a group is joined. For = O=C*

Data set [1] deals with T1, hKOR (Homo sapiens, UniProt P41145). The data set is described as follows: Competition binding, [3H]U69,593, hKOR-CHO membranes.
For the next data set, the target named is T2, human MOR (Homo sapiens, UniProt P35372).
T2 construct: expressed in transfected cells
Briefly: biochemical. It is filed as binding.

Data set [2] concerns the target T1, hKOR. The data set is described as follows: KOR cAMP assay using GloSensor-22F, agonist mode (KOR-CHO-GLO cells). The note with it: read-out: KOR Efficacy (%). It is filed as cell-based.
Data set [3] deals with T1, hKOR. Briefly: KOR cAMP assay using GloSensor-22F, antagonist mode (vs 10 nM U50,488). It is filed as cell-based. From the text: A piggy-Bac (PB) transposon/transposase system was utilized to allow for the stable integration of the GloSensor-22F cAMP sensor (Promega, Madison, WI, USA) gene into genomic TTAA sites in Chinese hamster ovary cells already stably expressing the hKOR. The pFastBac hyperPB plasmid vector, which codes for the piggy-Bac transposon/transposase system, was utilized and was a kind gift from Dr. John Lueck. The multicistronic expression cassette developed for our experiments consisted of a CMV promoter driving constitutive expression of GloSensor-22F cAMP sensor, followed by an internal ribosome entry site (IRES) to drive the expression of codon-optimized HygR-P2A-mScarlet (hygromycin resistance gene and mScarlet separated by a 2A self-cleaving peptide element). To clone the expression cassette onto the pFastBac vector, the CMV promoter and GloSensor-22F were PCR amplified from pGloSensor-22F cAMP Plasmid (Promega), the IRES sequence was PCR amplified from pLVX-CMV-Galpha-oA ONE-GO (a gift from Dr. Mikel Garcia-Marcos, Addgene plasmid #189732), the HygR-P2A-mScarlet sequence was a kind gift from Dr. Lueck, and a bGH-poly(A) termination sequence was PCR amplified from pcDNA3.1(+). The pFastBac vector was linearized via overnight digestion with CspCI at 37 °C, which cuts between two inverted terminal repeat (ITR) sequences, and the corresponding backbone and all PCR fragments were gel purified and assembled via Gibson assembly using the Gibson Assembly MasterMix (New England Biolabs, Ipswich, MA, USA). The resulting pFastBac CMV GloSensor-22F IRES HygR-P2A-mScarlet bGH plasmid was transformed into NEB Stable Competent E. coli (New England Biolabs), miniprepped using the E.Z.N.A. Plasmid DNA Mini Kit (Omega Bio-Tek, Norcross, GA, USA), and sequence verified by nanopore whole-plasmid sequencing (Eurofins Genomics, Louisville, KY, USA).
3.0 × 10^6 hKOR-CHO cells were plated on a 6 cm dish and incubated for four h at 37 °C and 5% CO2 in DMEM (Corning Mediatech, Manassas, VA, USA) supplemented with 5% FBS (Corning Mediatech), 1% Penicillin/Streptomycin (Gibco, Waltham, MA, USA). The cells were then transfected with 2.0 μg pFastBac CMV GloSensor-22F IRES HygR-P2A-mScarlet bGH using PEI as a transfection reagent. The following day, transfected cells were reseeded onto a 10 cm dish at a density of 5.0 × 10^5 cells and 600 μg/mL hygromycin B (Gold Bio, St. Louis, MO, USA) was added to the culture media. Cells were cultured under selection antibiotics for seven days, and the selection process was monitored by the increase in abundance of mScarlet positive cells via epifluorescence microscopy.
Following the selection period, KOR-CHO-GLO cells were maintained at 37 °C and 5% CO2 in DMEM supplemented with 5% FBS, 1% Penicillin/Streptomycin and 300 μg/mL hygromycin B to reduce the likelihood of CMV promoter silencing. On the day of the assay, cells were detached with 0.05% trypsin (Gibco) and counted, then centrifuged (1000× g, 5 min) and resuspended in assay buffer (1xPBS, 0.1% glucose, 0.5 mM MgCl2) containing 4 mM D-luciferin substrate (Gold Bio) at approximately 2 million cells/mL. 25 μL of cells (~50,000/well) were seeded onto poly L-lysine-coated white 96-well flat bottom plates (Greiner Bio-One, Kremsmünster, Austria)) and returned to the incubator for 60 min. Following incubation, cells were allowed to equilibrate to room temperature protected from light (10–15 min). Initial luminescence readings (at least 10 cycles) were collected for each well using a FLUOstar Omega v.6.2 plate reader (BMG Labtech, Ortenberg, Germany), after which the plate was removed. Prepared 4x treatments of drug (25 μL) were added to appropriate wells followed by 50 μL of 20 μM forskolin (AmBeed, Buffalo Grove, IL, USA) before the plate was returned to the reader and luminescence measured until final plateau levels were achieved (20–30 min). Assays were performed in duplicate and repeated at least three times.

The nature of data set [4]: Metabolic stability in human liver microsomes. It is filed as in vitro ADME. The note with it: human liver microsomes, 1 mg protein/mL; for half-life at 1 µM: 1 µM compound, 37 °C, read-out: HLM t1/2; for microsomal CLint at 1 µM: read-out: HLM CLint. How it is done:
(§1) Evaluation of the metabolic stability of the macrocyclic tetrapeptides by human and mouse liver microsomes was performed by Curia Global (Buffalo, NY, USA). […]
A general note: Liver microsomes are vesicles of endoplasmic reticulum, rich in cytochrome P450 enzymes.

A short description of data set [5]: Metabolic stability in mouse liver microsomes. Particulars: mouse liver microsomes, 1 mg protein/mL; for half-life at 1 µM: 1 µM compound, 37 °C, read-out: MLM t1/2; for microsomal CLint at 1 µM: read-out: MLM CLint. The class given is in vitro ADME. As to the method: as §1
The nature of data set [6]: Kinetic aqueous solubility. It is filed as physicochemical. Particulars: 1% DMSO, pH 7.4. From the text: Table A1 Stability of [D-Trp]- and [D-Phe^4]CJ-15,208 and selected analogs in human (HLMs) and mouse liver microsomes (MLMs)^1. and kinetic aqueous solubility. | column: Solubility ^2 / (µM)
The test system of data set [7] is C57BL/6J mice. Briefly: 55 °C warm-water tail-withdrawal assay, antinociception. The note with it: p.o. dose response; significant only first 10 min at high doses. The class given is in vivo, mouse. How it is done:
For intracerebroventricular administration, peptides were dissolved in DMSO at a concentration of 20 mM (100 nmol/5 µL), then diluted to test doses in a final vehicle solution of 50%DMSO/50% saline (0.9%). For all other testing (for oral administration), peptides were made fresh each day for testing in a final vehicle solution of 10% DMSO/10% Solutol/80% saline (0.9%).
Intracerebroventricular injections were made directly into the lateral ventricle according to the modified steps detailed previously. The volume of all i.c.v. injections was 5 μL, using a 10 μL Hamilton microliter syringe. The mouse was lightly anesthetized with isoflurane, an incision was made in the scalp, and the injection was made 2 mm lateral and 2 mm caudal to bregma at a depth of 3 mm.
The dose response of analogs 3, 6, 9 and 14 were also assessed following administration of one of up to four additional oral (p.o.) doses (1–30 mg/kg).

For another data set, the target named is DOR (Mus musculus, UniProt P32300). The data set is described as follows: 55 °C WWTW assay, antagonism of the DOR-selective agonist SNC80. The note with it: 3 or 4 30 mg/kg, p.o., 9 10 mg/kg, 2.5 h before SNC-80 100 nmol, i.c.v.
The next data set addresses MOR (Mus musculus, UniProt P42866). Briefly: 55 °C WWTW assay, antagonism of the MOR-preferring agonist morphine. Particulars: 3 or 4 30 mg/kg, p.o., 9 10 mg/kg, 2.5 h before morphine 10 mg/kg, i.p.
The target of a further data set is CNS KORs (Mus musculus, UniProt P33534). The data set is described as follows: 55 °C WWTW assay, antagonism of centrally administered U50,488 (30 nmol, i.c.v.). The note with it: 2.5 h pretreatment; for antagonism of CNS KORs: 30 mg/kg, p.o. (9: 10 mg/kg, p.o.).
Data set [8] relates to C57BL/6J mice. Briefly: Stress-induced reinstatement of extinguished cocaine conditioned place preference. The note with it: for fold lower dose for significant reduction of stress-induced reinstatement than [D-Trp]CJ-15,208: vs 60 mg/kg, p.o.
Data set [9] concerns C57BL/6J mice. Further details: method as in PMID 23425081. The note with it: cited from earlier work.
The target of another data set is KOR. Further details: method as in PMID 37765026. Particulars: cited from earlier work.
Setting [10] is: [3H]U69,593, human KOR, ± S.E.M., three independent experiments, read-out: KOR Ki.
[11] abbreviates: [3H]DAMGO, human MOR, ± S.E.M., three independent experiments, read-out: MOR Ki.
[12] abbreviates: p.o. once daily for two days, 1.5 h prior to FSS.

As for `O=Cn1cc(C[C@H]2NC(=O)[C@H](Cc3ccccc3)NC(=O)[C@H]3CCCN3C(=O)[C@H](Cc3ccccc3)NC2=O)c2ccccc21` [Analog 3, [D-Trp(formamide)]CJ-15,208] (cyclo(F[dP]F[dW](For))), the “Selectivity (MOR Ki/KOR Ki)” value at hKOR [1] (MOR Ki/KOR Ki) came out at 41. Also, the Ki at hKOR [1] (setting [10]) turned out to be 2.2 ± 0.15 nM. Besides, the Ki on human MOR (setting [11]) was found to be 90 ± 14 nM. Moreover, at hKOR [2], the Emax at 10 µM came out at 9.2 ± 4.9%. On hKOR [3], the IC50 amounted to 49 ± 5.4 nM. In addition, in data set [4], the half-life at 1 µM amounted to 2.8 min and the microsomal CLint at 1 µM was 244 µL/min/mg. Besides, in [5], the half-life at 1 µM was determined as 1.1 min and the microsomal CLint at 1 µM worked out at 607 µL/min/mg. The kinetic solubility in data set [6] came to 4.6 µM (≈ 2.79 µg/mL). The compound also gave an antinociception with C57BL/6J mice [7] of less than 20%. Further, on DOR, the “effect on antinociceptive effects of SNC80” value is recorded as “no significant effect”. For the same compound, on MOR, the “effect on antinociceptive effects of morphine” value is given as “no significant effect”. On CNS KORs, the “doses giving significant antagonism of CNS KORs” value is reported as 30 mg/kg, p.o; the “doses not producing significant antagonism of CNS KORs” value is reported as 1–10 mg/kg, p.o; the “antagonism of CNS KORs” value is recorded as “significant antagonism”. Also, in the data set with C57BL/6J mice [8] (setting [12]), the “doses not preventing stress-induced reinstatement of cocaine CPP” value is reported as 10 mg/kg and the “doses preventing stress-induced reinstatement of cocaine CPP” value is recorded as 30 mg/kg. Besides, in the data set with C57BL/6J mice [8], the “fold lower dose for significant reduction of stress-induced reinstatement than [D-Trp]CJ-15,208” value is listed as 2 fold.

With `O=C1N[C@H](Cc2c[nH]c3ccccc23)C(=O)N[C@@H](Cc2ccccc2)C(=O)N2CCC[C@@H]2C(=O)N[C@H]1Cc1ccccc1` [Analog 1, cyclo[Phe-D-Pro-Phe-D-Trp]] (cyclo(F[dP]F[dW])), the Ki was 6.9 ± 1.1 nM at hKOR [1], 58 ± 7.5 nM on human MOR and 21.8 nM at KOR. Also, the “Selectivity (MOR Ki/KOR Ki)” value on hKOR [1] was 8. The Emax at 10 µM at hKOR [2] stood at 16 ± 2.4%. In addition, the IC50 on hKOR [3] is 66 ± 11 nM. For the same compound, the half-life at 1 µM amounted to 5.5 min in data set [4] and 2.6 min in [5]. Moreover, the microsomal CLint at 1 µM was determined as 127 µL/min/mg in data set [4] and 269 µL/min/mg in [5]. Further, the kinetic solubility in [6] turned out to be 23 µM (≈ 13.3 µg/mL). Also, the “dose required to prevent stress-induced reinstatement” value in the data set on C57BL/6J mice [9] was 60 mg/kg, p.o.

As for `O=C1N[C@H](Cc2ccccc2)C(=O)N[C@@H](Cc2ccccc2)C(=O)N2CCC[C@@H]2C(=O)N[C@H]1Cc1ccccc1` [Analog 4, cyclo[Phe-D-Pro-Phe-D-Phe]] (cyclo(F[dP]F[dF])), at hKOR [1], the “fold lower KOR affinity than [D-Trp]CJ-15,208 (1)” value came out at 3.5 fold. Further, the “Selectivity (MOR Ki/KOR Ki)” value on hKOR [1] (MOR Ki/KOR Ki) is on record as 11. For the same compound, the inhibition constant Ki on hKOR [1] (setting [10]) was 24 ± 0.97 nM. Also, the inhibitory constant (Ki) on human MOR (setting [11]) was found to be 270 ± 23 nM. At hKOR [2], the Emax at 10 µM amounted to 19 ± 8.1%. At hKOR [3], the IC50 is 460 ± 100 nM. For the same compound, in data set [4], the half-life at 1 µM is 4.2 min and the microsomal CLint at 1 µM was 165 µL/min/mg. Also, in data set [5], the half-life at 1 µM worked out at 1.6 min and the microsomal CLint at 1 µM was determined as 447 µL/min/mg. This compound also had a solubility (kinetic) in data set [6] of 24 µM (≈ 12.9 µg/mL). The same compound gave an antinociception in the data set with C57BL/6J mice [7] of less than 20%. At DOR, the “effect on antinociceptive effects of SNC80” value is on record as “no significant effect”. Further, the “effect on antinociceptive effects of morphine” value on MOR was “no significant effect”. In addition, at CNS KORs, the “doses not producing significant antagonism of CNS KORs” value is given as 3 mg/kg, p.o and the “antagonism of CNS KORs” value is reported as “significant antagonism”. Besides, the “doses not preventing stress-induced reinstatement of cocaine CPP” value in the data set on C57BL/6J mice [8] (setting [12]) is given as 3 mg/kg. The “fold lower dose for significant reduction of stress-induced reinstatement than [D-Trp]CJ-15,208” value in the data set on C57BL/6J mice [8] is 6 fold.

What is called Ki is a dissociation constant, usually derived from enzyme kinetics or from competition with a known ligand. Broadly, the IC50 is the concentration that gives 50% inhibition. What is called kinetic solubility is the concentration staying in solution when a stock, usually in DMSO, is diluted into the medium.
